Assay results published in patent publication US20130089869A1, “Methods For and Uses of Mechanical Stiffness Profiling of Cancer Cells” (DUKE UNIVERSITY, priority 2011, published 2013).

Assays:
Type in all cases: cell-based, Human
IGROV [1] = assay: Magnetic tweezers assay (3DFM) of cell stiffness, IGROV cells; details: blebbistatin 100 μm added 30 mins before beads, vs untreated
Method: (§1) The Three Dimensional Force Microscope (3DFM)^11 was used for applying controlled and precise 60-100 pN local force (FIG. 6) on 2.8 micron magnetic beads (DYNAL Biotech, Oslo, Norway) coated with fibronectin (Sigma Aldrich, St. Louis, Mo.). Briefly, cells were plated on coverslips followed by addition of the beads. Cells and beads were incubated for 30 minutes followed by force application and resultant bead displacements were recorded and analyzed. The displacement of the beads was recorded with high-speed video camera (Pulnix, JAI, Ca) and tracked using Video Spot Tracker (http://cismm.cs.unc.edu). The mean creep compliance was calculated from the tracked displacements as described. Spring constants were derived by fitting the compliance curves to a Jeffrey's model for viscoelastic liquids (FIG. 6). […]
(§2) To further examine the relationship between cancer cell deformability and invasive potential, the effective shear modulus (here on referred to as the stiffness, k), of the cell was calculated by fitting a modified Kelvin Voigt model^12 to the compliance using a least squares fit (see FIG. 6). […] In addition, the variability in stiffness correlates directly with a specific measure of metastatic progression as determined using in vitro three-dimensional invasion assays.

IGROV [2] = assay: Immunofluorescence of cortical pMLC localization, IGROV cells; details: blebbistatin
Method: Immunoflourescence was performed essentially as described previously^9 and images were obtained using a Nikon inverted microscope.

IGROV [3] = assay: Transwell migration assay, IGROV cells; details: blebbistatin 100 μM in top chamber, vs untreated
Method: (§3) Cancer cells were seeded at a cell density of 25,000-70,000 on either Matrigel coated or uncoated filters and allowed to invade for 18-24 hours towards 10% FBS in the lower chamber. Cells invading and migrating through the Matrigel layer were visualized and counted as described^9. Percent cell migration or invasion was determined as the fraction of total cells that invaded through the filter. Blebbistatin (100 μM)^10 where used, was added to the top chamber of the transwell and migration and invasion allowed to proceed. Each assay was set up in duplicate, and each experiment was conducted at least 3 times with 4 random fields from a 10× magnification analyzed for each membrane.

Ovca429TβRIII cells [4] = assay: Matrigel invasion assay, Ovca429TβRIII cells; details: Ovca429TβRIII cells treated with blebbistatin, vs untreated
Method: as §3

IGROV [5] = assay: Matrigel invasion assay, IGROV cells; details: blebbistatin 100 μM in top chamber, 18-24 hours, vs untreated
Method: as §3

IGROV [6] = assay: Viability of IGROV cells under blebbistatin; details: concentration that disrupted cortical pMLC localization
Ovca429TβRIII cells [7] = assay: Magnetic tweezers assay (3DFM) of cell stiffness, Ovca429TβRIII cells; details: Ovca429TβRIII cells treated with blebbistatin
Method: as §1, §2

Cc1ccc2c(c1)C(=O)C1(O)CCN(c3ccccc3)C1=N2 (centres unmarked) [Blebbistatin]
decrease of cell stiffness (IGROV [1]): 2 fold | cortical pMLC localization (IGROV [2]): disrupted cortical pMLC localization | increase of cell migration (IGROV [3]): 4 fold | increase of invasiveness (Ovca429TβRIII cells [4]): four fold | increase of cell invasion (IGROV [5]): 2.5 fold | effect on viability (IGROV [6]): did not affect viability | stiffness K (spring constant) (Ovca429TβRIII cells [7]): 1.48 Pa | decrease of stiffness (Ovca429TβRIII cells [7]; vs untreated): two fold
